Source: paper PMC6320956, “O-Aminoalkyl-O-Trimethyl-2,3-Dehydrosilybins: Synthesis and In Vitro Effects Towards Prostate Cancer Cells” (Molecules, 2018)
Read-outs that look alike come from different tables or passages of the source.

Legend:
[1] = tested on: PC-3 cells; assay: WST-1 cell proliferation assay, PC-3; format: cell-based, human; settings: for IC50 (Silibinin)/IC50(Derivative) PC-3: fold potency relative to silibinin; for IC50: WST-1, three days of exposure, mean ± SD, n = 3
Protocol: (§1) The in vitro antiproliferative activities of six 7-O-substituted and 26 3-O-substituted silybin derivatives were evaluated using the WST-1 cell proliferation assay, according to the procedure as described in the Experimental Section in both androgen-sensitive (LNCaP) and androgen-insensitive (PC-3 and DU145) human prostate cancer cell lines. Silibinin and docetaxel were used as a positive control for comparison in the parallel experiments and the IC50 values calculated from the dose-response curves are summarized in Table 1. […] A three-carbon linker in 11 and 29, as well as a five-carbon linker in 31, 37 and 40, are beneficial to the potency.
(§2) All cell lines were initially purchased from American Type Culture Collection (ATCC^TM) (Manassas, VA, USA). The PC-3 and LNCaP prostate cancer cell lines were routinely cultured in RPIM-1640 medium supplemented with 10% FBS and 1% penicillin/streptomycin. The DU145 prostate cancer cells were routinely cultured in Eagle’s Minimum Essential Medium (EMEM) supplemented with 10% FBS and 1% penicillin/streptomycin. Cultures were maintained in a high humidity environment supplemented with 5% carbon dioxide at a temperature of 37 °C.
(§3) PC-3, DU145, or LNCaP cells were plated in 96-well plates at a density of 3,200 per well in 200 µL of culture medium. The cells were then separately treated with silibinin, or synthesized silibinin derivatives, at five different doses for three days, while equal treatment volumes of DMSO (0.25%) were used as the vehicle control. The cells were cultured in a CO2 incubator at 37 °C for three days. A total of 10 µL of the premixed WST-1 cell proliferation reagent (Clontech) was added to each well. After mixing gently for one min on an orbital shaker, the cells were incubated for an additional 3 h at 37 °C. To ensure a homogeneous distribution of color, it is important to mix gently on an orbital shaker for one min. The absorbance of each well was measured using a microplate reader (Synergy HT, BioTek, Winooski, VT, USA) at a wavelength of 430 nm. […] For calculating the IC50 values, a linear proliferative inhibition was made based on at least five dosages for each compound.

[2] = tested on: LNCaP cells; settings: WST-1, three days of exposure; cited from earlier work
[3] = tested on: DU145 cells; settings: WST-1, three days of exposure; cited from earlier work
[4] = tested on: LNCaP cells; assay: WST-1 cell proliferation assay, LNCaP; format: cell-based, human; settings: for IC50 (Silibinin)/IC50(Derivative) LNCaP: fold potency relative to silibinin; for IC50: WST-1, three days of exposure, mean ± SD, n = 3
Protocol: as §1, §2, §3

[5] = tested on: PC-3 cells; settings: WST-1, three days of exposure; cited from earlier work
[6] = tested on: DU145 cells; assay: WST-1 cell proliferation assay, DU145; format: cell-based, human; settings: for IC50 (Silibinin)/IC50(Derivative) DU145: fold potency relative to silibinin; for IC50: Homo sapiens, DU-145, 72 h, WST-1, three days of exposure, mean ± SD, n = 3
Protocol: as §1, §2, §3

[7] = tested on: PC-3 cells; assay: Cell cycle analysis by flow cytometry (propidium iodide); format: cell-based, human; settings: 20 µM, 16 h; controls 55.7% (11), 36.2% (29), 33.1% (31, 37, 40)
Protocol: Silibinin can arrest the rat (H-7 and I-8) and human prostate cancer cell (LNCaP) cycle at the G1 phase, and cause G1 and G2-M PC-3 prostate cancer cell cycle arrest.
PC-3 cells were plated in 24-well plates at a density of 200,000 per well in 400 µL of culture medium. […] […] Both attached and floating cells were collected in a centrifuge tube by centrifugation at an rcf value of 450 g for 5 min. After discarding the supernatant, the collected cells were re-suspended with 500 µL 80% cold ethanol to fix them for 30 min in 4 °C. The fixed cells could be stored at −20 °C for one week. After fixation, the ethanol was removed after centrifuging and the cells were washed with PBS. The cells were then re-suspend with 100 μL of […] ribonuclease and were cultured at 37 °C for 30 min to degrade all RNA. The cells were stained with 200 μL of 50 μg/mLpropidium iodide stock solution for 30 min at […], and then the fluorescence intensity of PI was detected in individual PC-3 cells using an Attune flow cytometer (Life Technologies, Carlsbad, CA, USA) within 0.5 to 1 h after staining.

[8] = tested on: prostate cancer cell lines (LNCaP, PC-3 and DU145); assay: WST-1 cell proliferation assay, three prostate cancer cell lines together; format: cell-based, human; settings: range for the five optimal derivatives over PC-3, DU145, LNCaP; for IC50: Homo sapiens
Source text: As part of our ongoing silybin project, this study aims to introduce a basic nitrogen-containing group to 7-OH of 3,5,20-O-trimethyl-2,3-dehydrosilybin or 3-OH of 5,7,20-O-trimethyl-2,3-dehydrosilybin via an appropriate linker for in vitro evaluation as potential anti-prostate cancer agents. The synthetic approaches to 7-O-substituted-3,5,20-O-trimethyl-2,3-dehydrosilybins through a five-step procedure and to 3-O-substituted-5,7,20-O-trimethyl-2,3- dehydrosilybins via a four-step transformation have been developed. Thirty-two nitrogen-containing derivatives of silybin have been achieved through these synthetic methods for the evaluation of their antiproliferative activities towards both androgen-sensitive (LNCaP) and androgen-insensitive prostate cancer cell lines (PC-3 and DU145) using the WST-1 cell proliferation assay. […] All these five optimal derivatives can arrest the PC-3 cell cycle in the G0/G1 phase and promote PC-3 cell apoptosis.
as §3
In summary, six 7-O-aminoalkyl-3,5-20-O-trimethyl-2,3-dehydrosilybins and 26 3-O-aminoalkyl-5,7,20-O-trimethyl-2,3-dehydrosilybins have been successfully synthesized through a five-step and four-step sequence, respectively. The synthetic methods can be used for the general synthesis of 7-O-substituted-3,5,20-O-trimethyl-2,3-dehydrosilybins and 3-O-substituted-5,7,20-O- trimethyl-2,3-dehydrosilybins. The antiproliferative activities of the 32 derivatives against three prostate cancer cell lines have been evaluated using the WST-1 cell proliferation assay. […] All these five optimal derivatives can cause PC-3 cell accumulation in a G0/G1 phase by increasing the cell population in this phase at 16 h. Derivatives 11, 37, and 40 show a stronger ability than derivatives 29 and 31 in activating PC-3 cell apoptosis by inducing appreciable levels of apoptotic cell death at a 5 µM concentration after 16 h of treatment.

[9] = tested on: PWR-1E non-neoplastic human prostate epithelial cells; assay: WST-1 cell proliferation assay, PWR-1E non-neoplastic cells; format: cell-based; settings: for IC50: Homo sapiens, PWR-1E, 72 h, WST-1, three days of exposure, mean ± SD, n = 3
Protocol: (§4) Silibinin and five potent derivatives (11, 29, 31, 37, and 40) were selected for further evaluation against the MCF 10A non-neoplastic human mammary epithelial cell line and PWR-1E non-neoplastic human prostate epithelial cells.
as §3

[10] = tested on: MCF 10A non-neoplastic human mammary epithelial cell line; assay: WST-1 cell proliferation assay, MCF 10A non-neoplastic cells; format: cell-based; settings: for IC50: Homo sapiens, MCF-10A, 72 h, WST-1, three days of exposure, mean ± SD, n = 3
Protocol: as §4, §3

[11] = tested on: PC-3 cells; assay: F2N12S and SYTOX AADvanced double staining apoptosis assay; format: cell-based, human; settings: for early phase apoptosis in PC-3 cells: 5 µM; for early phase apoptosis in PC-3 cells / early apoptotic cells / late apoptotic/necrotic cells / maximum apoptotic cell population / apoptotic cell death: 16 h; for early phase apoptosis in PC-3 cells / early apoptotic cells / late apoptotic/necrotic cells: range over 11, 37, 40; for concentration at which the apoptotic cell population reached its maximum: PC-3, 16 h; for maximum apoptotic cell population: 50 µM; for apoptotic cell death: up to a 10 µM concentration

Row | IC50 (Silibinin)/IC50(Derivative) PC-3 [1] | IC50 (Silibinin)/IC50(Derivative) LNCaP [4] | IC50 (Silibinin)/IC50(Derivative) DU145 [6] | IC50 ([1]; Homo sapiens, PC-3, 72 h) [µM] | IC50 [1] [µM] | IC50 [8] [µM] | IC50 ([4]; Homo sapiens, LNCaP, 72 h) [µM] | IC50 [4] [µM] | IC50 [6] [µM] | Compound | PC-3 cell population in G0/G1 phase [7] [%] | fold improvement in potency compared to silibinin [8] | IC50 [9] [µM] | IC50 [10] [µM] | early phase apoptosis in PC-3 cells [11] | early apoptotic cells ([11]; 10 µM) | late apoptotic/necrotic cells ([11]; 10 µM) | early apoptotic cells ([11]; 20 µM) | late apoptotic/necrotic cells ([11]; 20 µM) | concentration at which the apoptotic cell population reached its maximum [11] [µM] | also measured
1 |  |  |  | ≤ 3 | 2.72 ± 0.08 | 1.4 to 3.06 | ≤ 3 | 2.23 ± 0.18 | 3.06 ± 0.13 | COc1cc(OC)c2c(=O)c(OCCCCCN3CCOCC3)c(-c3ccc4c(c3)OC(c3ccc(OC)c(OC)c3)C(CO)O4)oc2c1 (stereo not drawn) [Compound 40] | 43.4 | 17- to 52 fold | < 5 | < 5 | 26–59% | 56–76% | 6–40% | 54–75% | 16–44% | 30 | 
2 |  |  |  | ≤ 3 | 2.71 ± 0.23 | 1.4 to 3.06 | ≤ 3 | 1.99 ± 0.23 | 2.69 ± 0.03 | COc1cc(OC)c2c(=O)c(OCCCCCN3CCCCC3)c(-c3ccc4c(c3)OC(c3ccc(OC)c(OC)c3)C(CO)O4)oc2c1 (stereo not drawn) [Compound 37] | 34.6 | 17- to 52 fold | < 5 | < 5 | 26–59% | 56–76% | 6–40% | 54–75% | 16–44% | 10 | 
3 | 7 | 4 | <2 | 9.98 ± 4.94 |  |  | 11.4 ± 5.91 |  | > 50 | COc1cc(OC)c2c(=O)c(OCCCN3CCNCC3)c(-c3ccc4c(c3)OC(c3ccc(OC)c(OC)c3)C(CO)O4)oc2c1 (stereo not drawn) [Compound 41] |  |  |  |  |  |  |  |  |  |  | 

Continued, compound first:

Row | Compound | IC50 (Silibinin)/IC50(Derivative) PC-3 [1] | IC50 (Silibinin)/IC50(Derivative) LNCaP [4] | IC50 (Silibinin)/IC50(Derivative) DU145 [6] | IC50 ([1]; Homo sapiens, PC-3, 72 h) [µM] | IC50 [1] [µM] | IC50 [8] [µM] | IC50 ([4]; Homo sapiens, LNCaP, 72 h) [µM] | IC50 [4] [µM] | IC50 [6] [µM] | PC-3 cell population in G0/G1 phase [7] [%] | fold improvement in potency compared to silibinin [8] | IC50 [9] [µM] | IC50 [10] [µM] | early phase apoptosis in PC-3 cells [11] | early apoptotic cells ([11]; 10 µM) | late apoptotic/necrotic cells ([11]; 10 µM) | early apoptotic cells ([11]; 20 µM) | late apoptotic/necrotic cells ([11]; 20 µM) | concentration at which the apoptotic cell population reached its maximum [11] [µM] | also measured
4 | CCCOc1c(-c2ccc3c(c2)OC(c2ccc(O)c(OC)c2)C(CO)O3)oc2cc(O)cc(O)c2c1=O (stereo not drawn) [Compound 4, 3-O-propyl-2,3-dehydrosilybin, reference compound] | 42 | 21 | 8 |  |  |  |  |  |  |  |  |  |  |  |  |  |  |  |  | IC50 [2]: 2.07 ± 0.18 µM; IC50 [3]: 11 ± 0.68 µM; IC50 [5]: 1.71 ± 0.45 µM
5 | COc1cc(C2Oc3cc(-c4oc5cc(O)cc(O)c5c(=O)c4O)ccc3OC2CO)ccc1O (stereo not drawn) [Compound 2, 2,3-dehydrosilybin] | 8 | 14 | 8 |  |  |  |  |  |  |  |  |  |  |  |  |  |  |  |  | IC50 [2]: 3.09 ± 1.3 µM; IC50 [3]: 11.5 ± 1.42 µM; IC50 [5]: 9.45 ± 0.56 µM
6 | CCCCN(CCCC)CCCCCOc1c(-c2ccc3c(c2)OC(c2ccc(OC)c(OC)c2)C(CO)O3)oc2cc(OC)cc(OC)c2c1=O (stereo not drawn) [Compound 31] |  |  |  | ≤ 3 | 2.84 ± 0.1 | 1.4 to 3.06 | ≤ 3 | 2.51 ± 0.31 | 2.85 ± 0.23 | 35.9 | 17- to 52 fold | < 5 | < 5 |  |  |  |  |  |  | maximum apoptotic cell population [11]: 95%; apoptotic cell death [11]: less than 10%
7 | CCCN(CCC)CCCOc1cc(OC)c2c(=O)c(OC)c(-c3ccc4c(c3)OC(c3ccc(OC)c(OC)c3)C(CO)O4)oc2c1 (stereo not drawn) [Compound 11] | 52 | 24 | 51 |  |  | 1.4 to 3.06 | ≤ 3 | 1.82 ± 0.14 | 1.84 ± 0.14 | 66.3 | 17- to 52 fold | > 50 | > 50 | 26–59% | 56–76% | 6–40% | 54–75% | 16–44% | 5 | antiproliferative activity towards PWR-1E ([9]; up to a 50 µM concentration): does not demonstrate apparent antiproliferative activity; antiproliferative activity towards MCF 10A ([10]; up to a 50 µM concentration): does not demonstrate apparent antiproliferative activity
8 | COc1cc(OC)c2c(=O)c(OCCCCCN(C)C)c(-c3ccc4c(c3)OC(c3ccc(OC)c(OC)c3)C(CO)O4)oc2c1 (stereo not drawn) [Compound 22] | 21 | 9 | 14 | 3.47 ± 2.23 |  |  | 5.07 ± 0.52 |  | 6.73 ± 0.45 |  |  |  |  |  |  |  |  |  |  | 
9 | COc1cc(OC)c2c(=O)c(OCCCCCN3CCCC3)c(-c3ccc4c(c3)OC(c3ccc(OC)c(OC)c3)C(CO)O4)oc2c1 (stereo not drawn) [Compound 34] | 25 | 11 | 16 | 2.95 ± 0.76 |  |  | 3.92 ± 1.67 |  | 5.9 ± 1.3 |  |  |  |  |  |  |  |  |  |  | 
10 | CCCCN(CCCC)CCCOc1c(-c2ccc3c(c2)OC(c2ccc(OC)c(OC)c2)C(CO)O3)oc2cc(OC)cc(OC)c2c1=O (stereo not drawn) [Compound 29] |  |  |  | ≤ 3 | 2.73 ± 0.12 | 1.4 to 3.06 | ≤ 3 | 2.21 ± 0.17 | 2.51 ± 0.04 | 50.3 | 17- to 52 fold | < 5 | < 5 |  |  |  |  |  |  | maximum apoptotic cell population [11]: 71%; apoptotic cell death [11]: less than 10%
